The nature of data set [1]: Caco-2 membrane permeability and transport. The following applies: human, pH 7.4; for Papp A→B at 2 h, 10 µM: Caco-2, apical to basal; for Papp B→A at 2 h, 10 µM: Caco-2, basal to apical. The data set is classed as in vitro ADME. Here is the method: The membrane permeability and transport properties of the compound of the present disclosure were determined using the following method. • I. Experimental materials and instruments • 1. Caco-2 cells (ATCC) • 2. HEPES (Solarbio 804D049), penicillin/streptomycin (Solarbio 20200109), Trypsin/EDTA (Solarbio), and PBS (Solarbio 20200620) • 3. Fetal Bovine Serum (FBS) (Sigma WXBD0055V), lucifer yellow (Sigma MKCJ3738), and NaHCO3 (Sigma SLBZ4647) • 4. Hank's balanced salt solution (Gibco 2085528), non-essential amino acid (NEAA) (Gibco 2211548), and Trypsin/EDTA (Gibco 2120732) • 5. High glucose DMEM (Corning 20319014) • 6. HTS Transwell-96 Well Permeable (Corning, 3391) • 7. Resistance detector (Millipore, Millicell® ERS-2) • 8. Cellometer® Vision (Nexcelom Bioscience) • 9. Infinite 200 PRO microplate reader (Tecan, Infinite M200PRO) • 10. Positive control compound metoprolol (Sinopharm 100084-201403), erythromycin (MCE 84550), and cimetidine (Sinopharm 100158-201406) • 11. ABI QTrap 5500 liquid chromatography-mass spectrometry system • II. Procedures • 1. Caco-2 cell culture • 1) Preparation of transport buffer (HBSS containing 25 mM HEPES, pH 7.4): 5.958 g HEPES and 0.35 g NaHCOs were accurately weighed and dissolved in 900 mL pure water. 100 mL of 10× HBSS was then added and stirred well. The pH was adjusted to 7.4, and the mixture was filtered. • 2) Preparation of Caco-2 cell culture medium: FBS, penicillin, streptomycin, kanamycin, and NEAA were added to a high glucose DMEM (containing L-glutamine) culture medium to prepare a cell culture medium containing 10% FBS, 0.1 mg/mL streptomycin, 100 units penicillin, 0.6 µg/mL kanamycin, and 1× NEAA. • 3) Cells were cultured with a T-75 flask at 37 °C with 5% CO2 in an incubator. The culture medium was discarded when cell density reached 80-90%. The cells were rinsed with 5 mL PBS. 1.5 mL Trypsin/EDTA was added. The mixture was incubated at 37 °C for 5-10 min in an incubator until the cells shed like quicksand. Finally the Trypsin/EDTA was neutralized with a FBS-containing culture medium. • 4) The cell suspension was centrifuged at 120 × g for 10 min, and the supernatant was discarded. • 5) The cells were resuspended in a cell culture medium. The cell suspension was adjusted to a density of 6.86 × 10^5 cells/mL. • 2. Caco-2 cell inoculation • 1) 50 µL of culture medium was added to the Transwell chamber per well. 25 mL of culture medium was added to the lower chamber, and the chamber was preheated at 37 °C for 1 h with 5% CO2 in an incubator. • 2) 50 µL of the cell suspension was added to the preheated Transwell chamber per well at a final density of 2.4 × 10^5 cells/cm^2 • 3) The cells were cultured for 14-18 days. The culture medium was replaced every other day, and the culture medium was replaced within 48 h after the initial inoculation. The culture medium had to be replaced the day before the experiment. • 3. Evaluation of integrity of monolayer cell membrane • 1) The cells fused and differentiated after 14 days of culture and were ready for a transport experiment. • 2) The resistance of the monolayer membrane was measured using a resistance detector. […] Transport experiment • 1) A 10 mM stock solution of the compound of the present disclosure or the positive control compound was diluted with DMSO to give a 2 mM stock solution. The 2 mM stock solution was then diluted with the transport buffer to give a 10 µM working solution of the compound of the present disclosure or the positive control compound. • 2) The Caco-2 cell plate was taken out from the incubator, washed twice with the pre-heated transport buffer, and incubated at 37 °C in an incubator for 30 min. • 3) To determine the transport rate of the compound from the apical end to the basal end (A → B), 108 µL of the working solution of the compound was added to the Transwell chamber (apical end), while 8 µL of the sample was immediately taken from the apical end to 72 µL of the transport buffer. […]

The next data set relates to H358-SOS2 KO cells. Put plainly: H358-SOS2 KO cell proliferation inhibition (CellTiter-Glo, 3D methylcellulose). The settings on record: 192 h, 8 days, CTG. The data set is classed as cell-based. Here is the method: The effect of the compounds of the present invention on the proliferation of H358 cells with knockout of SOS2 (H358-SOS2 KO, Kyinno Biotechnology Co., Ltd.) was assessed by CellTiter-Glo luminescent cell viability assay kit method. The H358-SOS2 KO cell strain was cultured in complete medium at 37 °C with 5% CO2. A sterilized 1% methylcellulose 3D medium was prepared in advance. Cells in the logarithmic growth phase were harvested and counted using a […]. The cell viability was determined by the trypan blue exclusion method, and the cell viability was kept 90% or more. The cell concentration was adjusted. The cells were uniformly mixed and left to stand. After no visible gas exists in the cell suspension, 180 µL of the cell suspension was added into a 96-well plate at 180 µL/well, and the total number of cells was 2000. The cells in the 96-well plate were incubated at 37 °C with 5% CO2. A diluted test compound was added to each well using a multi-channel pipette. […] The cell plate was placed at room temperature for 20 min to stabilize the luminescence signal. The luminescence value was read, and the data were collected. The data were analyzed using the GraphPad Prism 7.0 software. Dose-response curves were fit to the data using nonlinear S-curve regression, and the IC50 value was calculated from the curves.
For orientation: ATP-based viability assays read luminescence as a measure of living cells.

Structures are written as SMILES.

Turning to `Cc1nc(N[C@H](C)c2cccc(C(F)F)c2F)c2cn(C3(CF)CC3)c(=O)c(N3CCOC[C@@H]3C)c2n1` [Example 40, 4-(((R)-1-(3-(difluoromethyl)-2-fluorophenyl)ethyl)amino)-6-(1-(fluoromethyl)cyclopropyl)-2-methyl-8-((S)-3-methylmorpholine)pyrido[4,3-d]pyrimidine-7(6H)-one], the efflux ratio (commonly a quotient of directional permeabilities that is used to spot active efflux) at 2 h, 10 µM in data set [1] (Caco-2, Papp (B-A)/Papp (A-B)) worked out at 13.1. In data set [1], the apical-to-basolateral permeability (Papp A→B) – broadly, the apparent permeability from the apical to the basolateral side of a cell layer – at 2 h, 10 µM was determined as 2.1 ×10⁻⁶ cm/s and the Papp B→A – broadly, how fast a substance crosses the layer from the basolateral side – at 2 h, 10 µM amounted to 27.6 ×10⁻⁶ cm/s.

In the case of `[2H][C@](C)(Nc1nc(C)nc2c(N3CCOCC3)c(=O)n(C3(CF)CC3)cc12)c1cccc(C(F)F)c1F` [Example 55, (R)-4-((1-(3-(difluoromethyl)-2-fluorophenyl)ethyl-1-d)amino)-6-(1-(fluoromethyl)cyclopropyl)-2-methyl-8-morpholinylpyrido[4,3-d]pyrimidine-7(6H)-one], in the data set with H358-SOS2 KO cells, the IC50 (usually the concentration at which inhibition is half-maximal) came out at 79 nM. In addition, in data set [1] (Caco-2, Papp (B-A)/Papp (A-B)), the efflux ratio was 4.77. Moreover, in data set [1], the Papp A→B at 2 h, 10 µM came out at 5.09 ×10⁻⁶ cm/s and the basolateral-to-apical permeability (Papp B→A) at 2 h, 10 µM is 24.3 ×10⁻⁶ cm/s.
